Results as given in patent US10745360B2, “Quinoxaline compounds, method for preparing the same and use thereof” (Development Center for Biotechnology, priority 2014, dated 2020).

Columns and labels:
[1] = target: T1, B-Raf kinase (Homo sapiens, UniProt P15056); test: B-Raf kinase assay ([33P] incorporation into MEK1 K97R); type: biochemical; conditions: recombinant B-Raf, 8 μM ATP, 30 min, 30° C.; read-out: IC50 ranking against B-Raf kinase
T1 construct: purchased Upstate Biotechnology
Description: Inhibition of kinase activity by a test compound disclosed herein was estimated by quantifying the amount of [^33P] incorporation of a substrate in the presence of the test compound. Standard assay conditions were 5 ng of recombinant B-Raf kinase (Upstate Biotechnology) with 500 ng MEK1(Map-erk kinase; K97R) in the assay buffer (8 μM ATP, 0.5 μCi [^33P]ATP (specific activity 3000 Ci/mmol, PerkinElmer), 50 mM Tris/HCl (pH 7.5), and 1 mM EGTA, 1 mM Na3VO4, 1% 2-mercaptoethanol, 0.1% Brij 35, and 0.2 mg/ml BSA) in a final volume of 25 μL. Reactions were incubated at 30° C. for 30 min and stopped by adding 3% phosphoric acid, harvested onto a 96-well GF/B UniFilter (PerkinElmer) using a unifilter harvester (PerkinElmer), and counted with a TopCount microplate scintillation counter (PerkinElmer). The IC50 values of inhibitors were determined after carrying out assays at 3-fold serially diluted concentrations of each compound in duplication. The results were analyzed using linear regression software (GraphPad Prism 4; GraphPad Software Inc.).

[2] = target: T2, B-Raf^V600E kinase (Homo sapiens, UniProt P15056, V600E); test: B-Raf V600E kinase assay ([33P] incorporation into MEK1 K97R); type: biochemical; conditions: recombinant B-Raf^V600E, 8 μM ATP, 30 min, 30° C.; read-out: IC50 ranking against B-Raf^V600E kinase
T2 construct: purchased Upstate Biotechnology
Description: (§1) Inhibition of kinase activity by a test compound disclosed herein was estimated by quantifying the amount of [^33P] incorporation of a substrate in the presence of the test compound. Standard assay conditions were 5 ng of recombinant B-Raf^V600E kinase (Upstate Biotechnology) with 500 ng MEK1 (K97R) in assay buffer (8 μM ATP, 0.5 μCi [^33P]ATP (specific activity 3000 Ci/mmol, PerkinElmer), 50 mM Tris/HCl (pH 7.5), and 1 mM EGTA, 1 mM Na3VO4, 1% 2-mercaptoethanol, 0.1% Brij 35, and 0.2 mg/ml BSA), and the test compound (diluted with 4% DMSO) or DMSO alone (as a control) in a final volume of 25 μL. Reactions were incubated at 30° C. for 30 min and stopped by adding 3% phosphoric acid, harvested onto a 96-well GF/B UniFilter (PerkinElmer) using a unifilter harvester (PerkinElmer), and counted with a TopCount microplate scintillation counter (PerkinElmer). The IC50 values of inhibitors were determined after carrying out assays at 3-fold serially diluted concentrations of each compound in duplication. The results were analyzed using linear regression software (GraphPad Prism 4; GraphPad Software Inc.).

[3] = target: T3, C-Raf kinase (Homo sapiens, UniProt P04049); test: C-Raf kinase assay ([33P] incorporation into MEK1 K97R); type: biochemical; conditions: recombinant C-Raf, 8 μM ATP, 30 min, 30° C.; read-out: IC50 ranking against C-Raf kinase
T3 construct: purchased Upstate Biotechnology
Description: as §1, with “were 2” for “were 5”, “recombinant C-Raf” for “recombinant B-Raf^V600E”, “ng MEK1(K97R)” for “ng MEK1 (K97R)”

[4] = system: B-Raf^V600E mutant A375 melanoma cell; test: Cell proliferation assay (CELLTITER 96), A375; type: cell-based; conditions: Homo sapiens, A-375; A375, 72 hours; read-out: Cytotoxicity (IC50 Ranking) A375 (B-Raf^V600E)
Description: (§2) Inhibition of cell growth by compounds was measured using CELLTITER 96® assay. The cytotoxicity of compounds was evaluated in B-Raf^V600E mutant A375 melanoma cell, B-Raf^V600E mutant COLO205 colon cancer cell, and SK-MEL-2 melanoma cell with wild type B-Raf (B-Raf^wt) and NRASQ^Q61R mutation. A375 and COLO205 cell line were cultured in DMEM containing 10% FCS and incubated at 37° C. in 5% CO2 atmosphere. SK-MEL-2 cell line was cultured in MEM containing 10% FCS and incubated at 37° C. in 5% CO2 atmosphere. A375, COLO205 and SK-MEL-2 cell were seeded into 96-well plates at 2000, 2000, and 4000 cells/well, respectively, and allowed to adhere for overnight. Then, these seeded cells were treated with increasing concentrations of the test compounds and incubated for another 72 hours. At the end of the incubation, CELLTITER 96® Aqueous One Solution Reagent (Promega) was added and incubated for 4 hours. Cell viability was determined by measuring absorbance at 490 nm using EMAX® microplate reader (Molecular Devices).
(§3) The 50% inhibitory concentration (IC50) value was calculated by plotting the percentage of growth inhibition against the concentration of compound, using GraphPad Prism5 software for curve fitting.

[5] = system: B-Raf^V600E mutant COLO205 colon cancer cell; test: Cell proliferation assay (CELLTITER 96), COLO205; type: cell-based; conditions: Homo sapiens, COLO 205; COLO205, 72 hours; read-out: Cytotoxicity (IC50 Ranking) COLO205 (B-Raf^V600E)
Description: as §2, §3

[6] = system: SK-MEL-2 melanoma cell with wild type B-Raf (B-Raf^wt) and NRAS^Q61R mutation; test: Cell proliferation assay (CELLTITER 96), SK-MEL-2; type: cell-based; conditions: Homo sapiens; SK-MEL-2, 72 hours; given as bound; read-out: Cytotoxicity (IC50 Ranking) SK-MEL-2 (NRAS^Q61R, B-Raf^wt)
Description: as §2, §3

T2 sequence (P15056 whole entry V600E): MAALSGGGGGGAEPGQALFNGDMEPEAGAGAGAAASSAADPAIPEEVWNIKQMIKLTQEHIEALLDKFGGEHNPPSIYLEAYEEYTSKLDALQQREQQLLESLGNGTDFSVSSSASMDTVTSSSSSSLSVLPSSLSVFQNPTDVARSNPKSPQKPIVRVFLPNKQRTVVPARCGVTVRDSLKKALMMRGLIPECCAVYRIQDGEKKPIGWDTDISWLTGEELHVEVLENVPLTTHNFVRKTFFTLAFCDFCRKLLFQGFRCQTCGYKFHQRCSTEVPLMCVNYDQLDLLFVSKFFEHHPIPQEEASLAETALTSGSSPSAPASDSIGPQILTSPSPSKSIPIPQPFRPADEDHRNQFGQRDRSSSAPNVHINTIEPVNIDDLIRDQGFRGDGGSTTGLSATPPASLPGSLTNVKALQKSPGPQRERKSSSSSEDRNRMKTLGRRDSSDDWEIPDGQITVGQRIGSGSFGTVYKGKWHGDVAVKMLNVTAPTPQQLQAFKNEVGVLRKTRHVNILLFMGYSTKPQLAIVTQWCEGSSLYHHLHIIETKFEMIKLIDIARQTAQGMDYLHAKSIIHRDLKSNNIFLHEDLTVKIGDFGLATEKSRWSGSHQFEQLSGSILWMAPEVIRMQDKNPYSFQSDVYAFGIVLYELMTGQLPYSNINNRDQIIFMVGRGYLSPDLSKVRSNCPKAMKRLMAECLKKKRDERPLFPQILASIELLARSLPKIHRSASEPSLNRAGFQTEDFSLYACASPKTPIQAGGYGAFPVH
T3 sequence (P04049 whole entry): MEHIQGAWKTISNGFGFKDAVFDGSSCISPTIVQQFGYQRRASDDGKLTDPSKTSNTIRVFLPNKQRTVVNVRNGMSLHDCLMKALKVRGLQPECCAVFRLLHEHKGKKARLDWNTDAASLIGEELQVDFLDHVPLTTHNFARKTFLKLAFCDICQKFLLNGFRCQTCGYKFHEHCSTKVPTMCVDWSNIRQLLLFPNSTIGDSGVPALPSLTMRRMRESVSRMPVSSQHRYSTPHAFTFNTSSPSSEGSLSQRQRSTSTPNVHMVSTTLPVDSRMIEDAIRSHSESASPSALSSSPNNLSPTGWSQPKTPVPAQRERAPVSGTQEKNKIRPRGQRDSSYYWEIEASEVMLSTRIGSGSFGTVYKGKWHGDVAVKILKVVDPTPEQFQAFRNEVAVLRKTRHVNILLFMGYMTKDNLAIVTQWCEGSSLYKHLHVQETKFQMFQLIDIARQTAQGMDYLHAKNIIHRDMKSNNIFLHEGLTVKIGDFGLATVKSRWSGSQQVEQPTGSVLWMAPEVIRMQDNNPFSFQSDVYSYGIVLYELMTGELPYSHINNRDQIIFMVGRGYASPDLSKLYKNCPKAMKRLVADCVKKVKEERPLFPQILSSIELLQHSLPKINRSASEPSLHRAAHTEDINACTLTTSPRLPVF
T1 sequence (P15056 whole entry): as the sequence (P15056 whole entry V600E) above, with E600V counted along it

Row | Structure (SMILES) | IC50 [1] | IC50 [2] | IC50 [3] | IC50 [4] | IC50 [5] | IC50 [6]
1 | COc1cnc2ccc(Nc3c(F)ccc(NS(C)(=O)=O)c3F)c([N+](=O)[O-])c2n1 [compound 14, N-{2,4-difluoro-3-[(3-methoxy-5-nitro-6-quinoxalinyl)amino]phenyl}methanesulfonamide] | 300 to 1000 nM | 300 to 1000 nM | 300 to 1000 nM | 1000 to 10000 nM | 1000 to 10000 nM | > 10000 nM
2 | CCCS(=O)(=O)Nc1c(F)ccc(Nc2ccc3ncc(OC)nc3c2C#N)c1F [compound 21, N-(3-(5-cyano-3-methoxyquinoxalin-6-ylamino)-2,6-difluorophenyl)propane-1-sulfonamide] | < 300 nM | < 300 nM | < 300 nM | < 300 nM | < 300 nM | > 10000 nM
3 | CCCS(=O)(=O)Nc1cc(Nc2ccc3ncc(OC)nc3c2C#N)ccc1F [compound 22, N-(5-(5-cyano-3-methoxyquinoxalin-6-ylamino)-2-fluorophenyl)propane-1-sulfonamide] | < 300 nM | < 300 nM | < 300 nM | < 300 nM | < 300 nM | > 10000 nM
4 | CCCS(=O)(=O)Nc1ccc(F)c(Nc2ccc3ncc(N4CCOCC4)nc3c2C#N)c1 [compound 23, N-(3-(5-cyano-3-morpholinoquinoxalin-6-ylamino)-4-fluorophenyl)propane-1-sulfonamide] | 300 to 1000 nM | 300 to 1000 nM | 1000 to 10000 nM | < 300 nM | < 300 nM | > 10000 nM
5 | CCOc1cnc2ccc(Nc3cc(NS(=O)(=O)c4ccccc4)ccc3F)c(C#N)c2n1 [compound 24, N-(3-(5-cyano-3-ethoxyquinoxalin-6-ylamino)-4-fluorophenyl)benzenesulfonamide] | < 300 nM | < 300 nM | < 300 nM | 300 to 1000 nM | < 300 nM | > 10000 nM
6 | N#Cc1c(Nc2cc(NS(=O)(=O)c3ccccc3)ccc2F)ccc2ncc(N3CCOCC3)nc12 [compound 25, N-(3-(5-cyano-3-morpholinoquinoxalin-6-ylamino)-4-fluorophenyl)benzenesulfonamide] | < 300 nM | < 300 nM | < 300 nM | 300 to 1000 nM | < 300 nM | > 10000 nM
7 | CS(=O)(=O)Nc1ccc(F)c(Nc2ccc3ncc(N4CCOCC4)nc3c2C#N)c1 [compound 26, N-(3-(5-cyano-3-morpholinoquinoxalin-6-ylamino)-4-fluorophenyl)methanesulfonamide] | 1000 to 10000 nM | 1000 to 10000 nM | 1000 to 10000 nM | 1000 to 10000 nM | 1000 to 10000 nM | > 10000 nM
8 | CCOc1cnc2ccc(Nc3cc(NS(C)(=O)=O)ccc3F)c(C#N)c2n1 [compound 27, N-(3-(5-cyano-3-ethoxyquinoxalin-6-ylamino)-4-fluorophenyl)methanesulfonamide] | 1000 to 10000 nM | 1000 to 10000 nM | 1000 to 10000 nM | 1000 to 10000 nM | 300 to 1000 nM | > 10000 nM
9 | CCCS(=O)(=O)Nc1ccc(F)c(Nc2ccc3ncc(N(C)C)nc3c2C#N)c1 [compound 28, N-(3-(5-cyano-3-(dimethylamino)quinoxalin-6-ylamino)-4-fluorophenyl)propane-1-sulfonamide] | 300 to 1000 nM | 300 to 1000 nM | < 300 nM | 300 to 1000 nM | < 300 nM | > 10000 nM

More lines, main results first:

Row | IC50 [1] | IC50 [2] | IC50 [3] | Structure (SMILES) | IC50 [4] | IC50 [5] | IC50 [6]
10 | < 300 nM | < 300 nM | < 300 nM | CCCS(=O)(=O)Nc1ccc(F)c(Nc2ccc3ncc(O)nc3c2C#N)c1F [compound 15, N1-{3-[(5-cyano-3-hydroxy-6-quinoxalinyl)amino]-2,4-difluorophenyl}-1-propanesulfonamide] | 300 to 1000 nM | 300 to 1000 nM | > 10000 nM
11 | < 300 nM | < 300 nM | < 300 nM | CCCS(=O)(=O)Nc1ccc(F)c(Nc2ccc3ncc(OCCN4CCOCC4)nc3c2C#N)c1F [compound 16, N1-(3-{[5-cyano-3-(2-morpholinoethoxy)-6-quinoxalinyl]amino)-2,4-difluorophenyl)-1-propanesulfonamide] | < 300 nM | < 300 nM | > 10000 nM
12 | < 300 nM | < 300 nM | < 300 nM | CCCS(=O)(=O)Nc1ccc(F)c(Nc2ccc3ncc(OCC)nc3c2C#N)c1F [compound 17, N-(3-(5-cyano-3-ethoxyquinoxalin-6-ylamino)-2,4-difluorophenyl)propane-1-sulfonamide] | < 300 nM | < 300 nM | > 10000 nM
13 | < 300 nM | < 300 nM | < 300 nM | CCCS(=O)(=O)Nc1ccc(F)c(Nc2ccc3ncc(N(C)C)nc3c2C#N)c1F [compound 18, N-(3-(5-cyano-3-(dimethylamino)quinoxalin-6-ylamino)-2,4-difluorophenyl)propane-1-sulfonamide] | < 300 nM | < 300 nM | > 10000 nM
14 | < 300 nM | < 300 nM | < 300 nM | CCCS(=O)(=O)Nc1ccc(F)c(Nc2ccc3ncc(N4CCOCC4)nc3c2C#N)c1F [compound 19, N-(3-(5-cyano-3-morpholinoquinoxalin-6-ylamino)-2,4-difluorophenyl)propane-1-sulfonamide] | < 300 nM | < 300 nM | > 10000 nM
15 | < 300 nM | < 300 nM | < 300 nM | CCCS(=O)(=O)Nc1ccc(F)c(Nc2ccc3ncc(NC)nc3c2C#N)c1F [compound 20, N-(3-(5-cyano-3-(methylamino)quinoxalin-6-ylamino)-2,4-difluorophenyl)propane-1-sulfonamide] | < 300 nM | < 300 nM | > 10000 nM
